Entries after “also recorded” stand apart in the source; their conditions may differ. Values belong to the molecule of their own block, whether it stands above or below them. Positions of bridges follow the written chain, without caps; N, C: chain ends. Non-standard residues stand in square brackets, D forms with d. Residues, ends and D or L forms follow the SMILES beside them. [invdT] = inverted (3'-3') thymidine; hArg = N=C(N)NCCCC[C@H](N)C(=O)O; Mpa = O=C(O)CCS
How the values were obtained:
[1] = target: human factor IXa (Homo sapiens, UniProt P00740); experiment: APTT clotting assay: anticoagulant activity of factor IXa aptamer; conditions: FIG. 5B
[2] = tested on: human plasma; experiment: APTT clotting time with antidote alone (no aptamer); format: biochemical
[3] = tested on: Aptamer Ch-9.3t; experiment: Isothermal titration calorimetry (Example V, Table 3); format: binding; conditions: ITC, 298K, PBS
[4] = tested on: aptamer 9.3t; experiment: Isothermal titration calorimetry, two-sites binding model (Table 5); conditions: for K1: first stage binding; for affinity for aptamer 9.3t (in words): two-site model
[5] = tested on: aptamer 9.3t; experiment: APTT clotting assay: antidote reversal of factor IXa aptamer in human plasma; conditions: for reversal of factor IXa aptamer (9.3t / Ch-9.3t) anticoagulant activity: antidote 2.5 μg (per 160 μl), human plasma
[6] = in vivo; cited from earlier work
[7] = tested on: aptamers 9.3t and 11F7T; experiment: APTT clotting assay: reversal of both aptamers simultaneously; format: biochemical, human; conditions: protamine 2.5 μg per 160 μl
Description: All reactions were performed in triplicate.

[8] = tested on: Factor IXa aptamer (Ch-9.3t); experiment: Swine systemic anticoagulation, ACT: antidote reversal; format: in vivo; conditions: protamine 10 mg/kg; for reversal of aptamer anticoagulation (ACT): 30 minutes post aptamer
[9] = in vivo; cited from earlier work; remark: listed apart in the source
[10] = tested on: aptamer 11F7T; experiment: APTT clotting assay: antidote reversal of factor Xa aptamer in human plasma; conditions: for reversal of factor Xa aptamer (11F7T) anticoagulant activity: antidote 2.5 μg (per 160 μl), human plasma
[11] = in vivo; cited from earlier work; remark: listed apart in the source
[12] = target: T1, VWF (Homo sapiens, UniProt P04275); experiment: PFA-100 platelet function assay: antiplatelet activity of VWF aptamers; format: cell-based; conditions: whole blood
T1 construct: from tissue; host or cells: normal human whole blood
Description: The Platelet Function Analyzer, PFA-100 (Dade Behring, Deerfield, Ill.), measures platelet function in terms of clot formation time. In this assay, collagen/ADP cartridges were used to activate the platelets. 800 μl of whole blood was mixed with aptamer in platelet binding buffer (40 μl) (150 mM NaCl; 20 mM Hepes pH:7.4; 5 mM KCl; 1 mM MgCl2 and 1 mM CaCl2) and incubated for 5 min at room temperature. Antidote molecule or platelet buffer (40 μl) was than added and incubated for 5 min at room temperature. This mixture was then added to a collagen/ADP cartridge and tested for its closing time (Harrison, Blood Rev. 19:111 (2005)). The maximum closing time of the PFA-100 is 300 seconds. Data is shown as the change in closing time. All reactions were performed in triplicate.

[13] = 9.3t-Bi 150 nM + antidote 2.5 ug/well
[14] = protamine 2.5 μg, aptamer 150 nM

T1 sequence (P04275 23-2813): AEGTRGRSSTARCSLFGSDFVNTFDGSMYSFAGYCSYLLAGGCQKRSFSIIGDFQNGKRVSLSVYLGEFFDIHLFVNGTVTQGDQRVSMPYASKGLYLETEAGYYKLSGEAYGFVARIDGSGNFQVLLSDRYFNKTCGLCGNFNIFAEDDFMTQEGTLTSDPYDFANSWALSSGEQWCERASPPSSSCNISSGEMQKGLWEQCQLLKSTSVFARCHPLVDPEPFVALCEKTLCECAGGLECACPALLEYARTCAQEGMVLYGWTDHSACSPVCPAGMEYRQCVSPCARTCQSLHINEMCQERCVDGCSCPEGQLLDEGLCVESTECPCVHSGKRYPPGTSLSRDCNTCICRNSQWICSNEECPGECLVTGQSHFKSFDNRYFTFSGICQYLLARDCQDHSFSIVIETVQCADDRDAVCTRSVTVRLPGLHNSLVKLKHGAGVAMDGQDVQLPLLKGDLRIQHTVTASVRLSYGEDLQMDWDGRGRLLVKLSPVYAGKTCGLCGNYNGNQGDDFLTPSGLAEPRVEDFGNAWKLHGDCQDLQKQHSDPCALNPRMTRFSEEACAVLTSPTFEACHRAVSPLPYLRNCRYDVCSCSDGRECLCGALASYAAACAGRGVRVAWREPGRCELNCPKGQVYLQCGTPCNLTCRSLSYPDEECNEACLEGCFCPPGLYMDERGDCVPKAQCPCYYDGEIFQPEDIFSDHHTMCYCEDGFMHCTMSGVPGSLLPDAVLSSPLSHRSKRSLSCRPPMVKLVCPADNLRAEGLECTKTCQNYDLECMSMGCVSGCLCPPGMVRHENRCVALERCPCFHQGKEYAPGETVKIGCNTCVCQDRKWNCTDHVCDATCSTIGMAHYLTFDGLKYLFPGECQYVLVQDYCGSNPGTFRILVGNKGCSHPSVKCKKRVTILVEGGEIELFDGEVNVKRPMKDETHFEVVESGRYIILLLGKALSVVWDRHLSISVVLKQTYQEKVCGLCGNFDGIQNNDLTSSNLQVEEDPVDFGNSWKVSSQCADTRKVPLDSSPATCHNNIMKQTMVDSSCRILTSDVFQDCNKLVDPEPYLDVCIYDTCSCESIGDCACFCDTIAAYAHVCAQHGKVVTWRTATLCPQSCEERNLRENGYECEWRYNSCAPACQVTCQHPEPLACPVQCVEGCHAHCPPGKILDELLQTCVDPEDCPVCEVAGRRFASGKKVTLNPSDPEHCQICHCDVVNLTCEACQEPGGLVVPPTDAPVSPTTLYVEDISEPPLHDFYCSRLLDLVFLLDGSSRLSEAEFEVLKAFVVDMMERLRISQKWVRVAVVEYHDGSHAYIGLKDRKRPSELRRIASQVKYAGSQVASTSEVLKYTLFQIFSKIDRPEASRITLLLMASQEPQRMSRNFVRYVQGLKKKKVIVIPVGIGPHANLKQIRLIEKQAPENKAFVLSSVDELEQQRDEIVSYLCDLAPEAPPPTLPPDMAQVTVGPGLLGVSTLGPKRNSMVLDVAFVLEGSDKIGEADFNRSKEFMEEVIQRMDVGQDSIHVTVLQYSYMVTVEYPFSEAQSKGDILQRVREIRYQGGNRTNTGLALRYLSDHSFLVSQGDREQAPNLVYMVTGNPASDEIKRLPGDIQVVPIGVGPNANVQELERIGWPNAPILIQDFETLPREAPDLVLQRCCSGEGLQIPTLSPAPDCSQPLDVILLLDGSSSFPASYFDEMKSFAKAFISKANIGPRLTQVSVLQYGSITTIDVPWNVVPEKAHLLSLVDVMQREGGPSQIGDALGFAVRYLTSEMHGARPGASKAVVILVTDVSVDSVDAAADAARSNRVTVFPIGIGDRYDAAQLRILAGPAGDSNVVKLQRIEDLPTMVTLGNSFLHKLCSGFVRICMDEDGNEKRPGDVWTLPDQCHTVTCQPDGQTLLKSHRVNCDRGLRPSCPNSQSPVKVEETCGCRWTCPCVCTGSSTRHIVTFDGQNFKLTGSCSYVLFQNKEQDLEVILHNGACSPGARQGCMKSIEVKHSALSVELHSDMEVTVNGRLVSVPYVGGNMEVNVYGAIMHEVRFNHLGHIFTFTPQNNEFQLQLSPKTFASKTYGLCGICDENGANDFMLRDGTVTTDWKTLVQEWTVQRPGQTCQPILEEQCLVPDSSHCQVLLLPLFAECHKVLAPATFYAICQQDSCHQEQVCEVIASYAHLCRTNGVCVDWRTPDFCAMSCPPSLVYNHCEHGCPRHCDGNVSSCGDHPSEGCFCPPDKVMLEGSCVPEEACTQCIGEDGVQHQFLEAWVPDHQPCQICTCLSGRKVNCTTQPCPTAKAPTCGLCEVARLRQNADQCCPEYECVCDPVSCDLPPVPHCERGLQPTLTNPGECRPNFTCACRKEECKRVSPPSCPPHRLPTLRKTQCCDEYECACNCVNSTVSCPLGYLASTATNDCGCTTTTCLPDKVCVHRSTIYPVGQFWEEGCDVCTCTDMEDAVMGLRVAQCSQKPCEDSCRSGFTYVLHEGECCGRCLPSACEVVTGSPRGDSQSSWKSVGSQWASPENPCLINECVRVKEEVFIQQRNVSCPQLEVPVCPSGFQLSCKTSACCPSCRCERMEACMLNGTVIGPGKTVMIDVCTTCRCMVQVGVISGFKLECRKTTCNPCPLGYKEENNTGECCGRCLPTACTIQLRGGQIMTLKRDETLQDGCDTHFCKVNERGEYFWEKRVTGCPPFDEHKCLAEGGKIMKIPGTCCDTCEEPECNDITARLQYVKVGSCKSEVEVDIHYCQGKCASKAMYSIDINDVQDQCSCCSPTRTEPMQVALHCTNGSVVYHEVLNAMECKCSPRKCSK
human factor IXa, sequence (P00740 227-461 limits assumed): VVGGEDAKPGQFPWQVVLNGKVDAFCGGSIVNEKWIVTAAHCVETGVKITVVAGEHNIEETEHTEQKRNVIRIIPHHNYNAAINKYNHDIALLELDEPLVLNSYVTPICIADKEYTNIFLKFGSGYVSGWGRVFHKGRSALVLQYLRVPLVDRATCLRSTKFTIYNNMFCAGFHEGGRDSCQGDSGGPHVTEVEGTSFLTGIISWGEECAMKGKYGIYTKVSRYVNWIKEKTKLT
human factor IXa, sequence (P00740 47-191 limits assumed): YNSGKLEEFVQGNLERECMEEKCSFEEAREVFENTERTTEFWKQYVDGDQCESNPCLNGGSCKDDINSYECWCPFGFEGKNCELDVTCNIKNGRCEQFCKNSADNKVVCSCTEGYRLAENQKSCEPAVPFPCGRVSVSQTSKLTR

Molecule: 9.3t: factor IXa aptamer, 37 nt 2′fluoropyrimidine modified ssRNA, no carrier (SEQ ID NO: 1) (AUGGGGACUAUACCGCGUAAUGCUGCCUCCCCAUU; 2'-fluoro at CU, RNA at AG, 3' [invdT], backbone not given here)
anticoagulant activity (in words) [1]: potent anticoagulant

Binding constant [3]: 8800 M⁻¹
K1 [4]: 1.63e+06 M⁻¹
K2 ([4]; second stage binding): 126000 M⁻¹
affinity for aptamer 9.3t (in words) [4]: orders of magnitude lower
Molecule: NCCCNCCCCNCCCN [Spermine]
APTT clotting time ([2]; antidote 1.3 ug/well): 63.8 s
affinity with aptamer 9.3t (in words) [3]: No significant binding
APTT clotting time ([5]; 9.3t-Bi 150 nM + antidote 1.3 ug/well): 72.7 s
Comments: reversal over antidote range ([5]; 9.3t-Bi 150 nM, antidote 1.3 ug/well-10 ug/well): Did not work b/w 1.3 ug/well-10 ug/well

Molecule: N=C(N)NCCCC[C@@H]1NC(=O)CCSSC[C@@H](C(N)=O)NC(=O)[C@@H]2CCCN2C(=O)[C@H](Cc2c[nH]c3ccccc23)NC(=O)[C@H](CC(=O)O)NC(=O)CNC1=O [eptifibatide] ([Mpa][hArg]GDWPC-NH2; disulfide 1-7)
time for clearance of the compound [6]: 2 to 4 h

Molecule: NCCCCNCCCN [spermidine, Spermidine]
affinity with aptamer 9.3t (in words) [3]: No significant binding

K1 [4]: 3.09e+07 M⁻¹
affinity for aptamer 9.3t (in words) [4]: significant and similar affinities
Molecule: Protamine
duration of simultaneous reversal [7]: maintained for at least an hour
reversal of both aptamers' activity simultaneously [7]: reverses
reversal of both aptamers' activity simultaneously ([7]; listed as protamine): reverse the anticoagulant activity of the two aptamers simultaneously
APTT clotting time ([2]; antidote 2.5 ug/well): 24 s
time to return of ACT to baseline / reversal [8]: within five minutes
reversal of aptamer anticoagulation (ACT) [8]: reverses
reversal of aptamer anticoagulation (ACT) ([8]; listed as protamine): total reversal; also recorded: complete reversal
duration of reversal ([8]; Example IV): at least one hour
duration of reversal (remainder of the experiment) ([8]; Example VI): 60 min
side effects of administration [9]: associated with several side effects
reversal of factor Xa aptamer (11F7T) anticoagulant activity ([10]; aptamer 250 nM): reverses
reversal of factor Xa aptamer (11F7T) anticoagulant activity ([10]; aptamer 250 nM, listed as protamine): totally reverse
duration of reversal in vitro (APTT) ([10]; protamine): at least 60 minutes
time after protamine administration to total reversal ([10]; protamine 2.5 μg, aptamer 250 nM): ≤ 5 min
protamine concentration for total reversal relative to that routinely used to reverse heparin's anticoagulant activity ([5]; 2.5 μg protamine, both aptamers 9.3t and 11F7T, lower): 2 fold
APTT clotting time [5, 13]: 30.3 s
Reversal [5, 13]: Yes
reversal of factor IXa aptamer (9.3t / Ch-9.3t) anticoagulant activity ([5]; aptamer 150 nM): reverses
reversal of factor IXa aptamer (9.3t / Ch-9.3t) anticoagulant activity ([5]; aptamer 150 nM, listed as protamine): returned the clotting time to normal; also recorded: totally reverse
duration of reversal in vitro (APTT) ([5]; protamine): at least 60 minutes
duration of reversal [5, 14]: maintained for at least an hour
time after protamine addition to return of clotting time to normal [5, 14]: ≤ 5 min

Molecule: β-cyclodextrin-containing polycation (imidazole-containing variant) [CDP-Im]
safety profile [11]: favorable safety profile

B1: VWF aptamer 9.14: Von Willebrand factor aptamer (SEQ ID NO: 3) (nucleic acid)
chain: GGGAGGACGAUGCGGUGGACGAACUGCCCUCAGCUACUUUCAUGUUGCUGACGCACAGACGACUCGCUGAGGAUCCGAGA
modifications: listed as RNA, chemistry not given here
inhibition of platelet function [12]: can inhibit platelet function

B2: VWF aptamer 9.3: Von Willebrand factor aptamer (SEQ ID NO: 5) (nucleic acid)
chain: GGGAGGACGAUGCGGAUCGCGCUCUCCUGCUUAAGCAGCUAUCAAAUAGCCCACUCAGACGACUCGCUGAGGAUCCGAGA
modifications: listed as RNA, chemistry not given here
inhibition of platelet function [12]: can inhibit platelet function

Source: patent US9901553B2, “Method of modulating the activity of a nucleic acid molecule” (DUKE UNIVERSITY, priority 2007, dated 2018)
